Values of other authors, collected in patent publication US20110155130A1, “Dronabinol Treatment for Migraines” (Unimed Pharmaceuticals, Inc., priority 2005, published 2011).

Conditions: 5 mg to 20 mg oral doses of THC; randomized controlled clinical trials

CCCCCc1cc(O)c2c(c1)OC(C)(C)[C@@H]1CCC(C)=C[C@@H]21 [THC, (6a R-trans)-6a,7,8,10a-tetrahydro-6,6,9-trimethyl-3-pentyl-6H-dibenzo[b,d]pyran-1-ol]
effectiveness compared with codeine: as effective as 50 mg to 120 mg of codeine
